The source of these data is EPA's ToxValDB 9.5.

A word on the LD50: it is the dose at which mortality reaches 50%. A higher LD50 goes with a less toxic substance. As usually defined, the LOAEL is the lowest tested level that showed an adverse finding. The term NOAEL denotes the highest dose or exposure tested at which no adverse effect was seen.

In series [1] the test system is Rattus norvegicus. As to conditions: for LD50 / LC50: acute.
Series [2] concerns Mus musculus. As to conditions: for LC50: acute.
The subject of series [3] is Oryctolagus sp. The settings on record: dermal; for LD50: acute.
Series [4] relates to Rattus norvegicus. The settings on record: subchronic, oral, gavage.
Series [5] deals with Rattus norvegicus. As to conditions: chronic; duration: 13 months; oral; drinking water; M; Sprague-Dawley; neurological.
The subject of series [6] is Canidae. The settings on record: chronic; duration: 1 years; oral; diet; M/F; Dog Other; thyroid toxicity.
The mark [7] stands for this setting: reproduction developmental, duration: 4 weeks, Inhalation, F, CD.
Where [8] appears, read: reproduction developmental, duration: 4 weeks, Inhalation, M, CD.
Where [9] appears, read: reproduction developmental, duration: 10 days, oral, gavage, Crl:CD(SD).
Setting [10] is: short-term, duration: 2 weeks, oral, gavage, Fischer 344.
[11] abbreviates: subchronic, duration: 13 weeks, inhalation, Sprague-Dawley.
Setting [12] is: subchronic, duration: 13 weeks, oral, gavage, F, Fischer 344.
[13] abbreviates: subchronic, duration: 13 weeks, oral, gavage, M, Fischer 344.
Setting [14] is: short-term, duration: 2 weeks, oral, gavage, B6C3F1.
Where [15] appears, read: subchronic, duration: 13 weeks, inhalation, B6C3F1.
[16] abbreviates: subchronic, duration: 13 weeks, oral, gavage, B6C3F1.

Several values for one entry are separate records, joined by “and”; a condition that tells them apart may be missing. Equal values may be shown once.

`C1CN(SSN2CCOCC2)CCO1` [4,4'-Dithiodimorpholine]: the LD50 was 5600 mg/kg in series [1] (oral, gavage, Sprague-Dawley) and more than 5010 mg/kg in series [3] (occlusive, New Zealand). Further, the lowest observed adverse effect level (LOAEL) in series [1] (setting [7]) is 29 mg/m3; in series [1] (setting [8]), 9.9 mg/m3; in series [1] (setting [9]), 500 mg/kg-day. For the same molecule, the NOAEL in series [1] (setting [7]) stood at 9.9 mg/m3; in series [1] (setting [8]) it was 1.1 mg/m3; in series [1] (setting [9]), 100 mg/kg-day. In series [2] (inhalation), this molecule displayed an LC50 of 1620 mg/m3.
As for `C=CC1CC=CCC1` (stereo not drawn) [4-Vinylcyclohexene], the LC50 in series [1] (inhalation) is 27000 mg/m3 and < 35400 mg/m3; in series [2] (inhalation), 46900 mg/m3. Further, the LD50 in series [1] (oral, gavage, Carworth Wistar) worked out at 2560 mg/kg. The NOAEC in series [1] (short-term, duration: 2 weeks, inhalation, F, Sprague-Dawley) turned out to be 6640 mg/m3; in series [1] (short-term, duration: 2 weeks, inhalation, M, Sprague-Dawley), 3190 mg/m3. For the same molecule, the LOAEL in series [1] (setting [10]) came out at 1250 mg/kg-day; in series [1] (setting [11]), 4420 mg/m3; in series [1] (setting [12]) it was 800 mg/kg-day; in series [1] (setting [13]), 400 mg/kg-day; in series [2] (setting [14]) it was 2500 mg/kg-day; in series [2] (setting [15]), 4420 mg/m3. For the same molecule, in series [2] (setting [16]), the lowest observed adverse effect level (LOAEL) is 1200 mg/kg-day. The NOAEL in series [1] (setting [10]) amounted to 600 mg/kg-day; in series [1] (setting [11]), 1110 mg/m3; in series [1] (setting [12]) it was 400 mg/kg-day; in series [1] (setting [13]) it was 200 mg/kg-day; in series [2] (short-term, duration: 2 weeks, inhalation, B6C3F1) it was 3190 mg/m3; in series [2] (setting [14]), 1250 mg/kg-day. For the same molecule, the NOAEL in series [2] (setting [15]) was determined as 1110 mg/m3; in series [2] (setting [16]), 600 mg/kg-day. Further, the NOEL in series [4] (duration: 13 weeks, M/F, Fischer 344, Deaths + Body Weight Changes: decrease + Histopathology: Kidney-Hyaline droplet degeneration Glandular stomach-Inflammation) is less than 50 mg/kg-day; in series [4] (M, Sprague-Dawley, Clinical Observation: Salivation Locomotor activity decrease + Relative Organ Weight: Kidney increase + Histopathology: Stomach/Glandular …) it was less than 2 mg/kg-day.
Take `CCCCC(C)=O` [2-Hexanone]: in series [5], the LOAEL came to 143 mg/kg-day.
`c1ccc(-c2ccccc2)cc1` [Biphenyl]: the LD50 was 2400 mg/kg in series [1] (oral, Sprague-Dawley); 3280 mg/kg in series [1] (oral, gavage, Sprague-Dawley); more than 5010 mg/kg in series [3] (New Zealand). Moreover, the NOAEL in series [1] (chronic, duration: 750 days, oral, diet) was found to be 78 mg/kg-day; in series [1] (developmental, duration: 10 days, oral, gavage, Wistar), 500 mg/kg-day; in series [1] (reproduction developmental, duration: 10 days, oral, gavage, F, Wistar) it was 500 mg/kg-day; in series [1] (reproduction developmental, duration: 750 days, oral, diet, generation: F0), 1000 ppm; in series [1] (reproduction developmental, duration: 750 days, oral, diet, generation: F1), 5000 ppm; in series [1] (reproduction developmental, oral, diet, Long-Evans, generation: F0) it was 1000 ppm. In series [2] (subchronic, duration: 13 weeks, inhalation, CD1), the LOAEL came out at 158 mg/m3.
Take `N#Cc1cccc(C#N)c1` [1,3-Benzenedicarbonitrile]: the LC50 in series [1] (Inhalation, Sprague-Dawley) was more than 8970 mg/m3. The LD50 in series [1] (oral, gavage) is more than 5010 mg/kg; in series [3] (occlusive), more than 2000 mg/kg. In addition, the NOAEL was 5 mg/kg-day in series [1] (chronic, duration: 99 days, oral, diet, F, Charles River Crl:CD BR VAF/PLUS); 1 mg/kg-day in series [1] (chronic, duration: 99 days, oral, diet, M, Charles River Crl:CD BR VAF/PLUS); 25 mg/kg-day in series [1] (reproduction developmental, duration: 122 days, oral, diet, F); 190 mg/m3 in series [1] (short-term, duration: 14 days, Inhalation, Sprague-Dawley); 20 mg/kg-day in series [2] (chronic, duration: 91 days, oral, diet, CD1); 500 mg/kg-day in series [3] (short-term, duration: 3 weeks, non-occlusive, New Zealand).
In series [6], `CC(=O)O.CCCCCCCCCCCCN=C(N)N` [Dodecylguanidine acetate] returned an LEL of 5 mg/kg-day and an NOEL of 1.25 mg/kg-day.
